Values of other authors, collected in patent US20030125233A1, “Use of urokinase inhibitors for the treatment and/or prevention of pulmonary hypertension and/or cardiac remodelling” (priority 2000, published 2003).

Key:
tumor metastasis = details: Kellen et al. 1988
[1] = test system: angiogenesis/capillary network formation; details: Alliegro et al. 1991

Structure (SMILES): N=C(N)NC(=O)c1nc(Cl)c(N)nc1N [amiloride]
- tumor metastasis in vivo (tumor metastasis): inhibit
- angiogenesis/capillary network formation in vitro [1]: inhibit
